Laboratory results from PMC9143880, “Improving Antimicrobial Activity and Physico-Chemical Properties by Isosteric Replacement of 2-Aminothiazole with 2-Aminooxazole” (Pharmaceuticals, 2022).
pIC50: −log10 of the molar value. ≈ marks a conversion by molar mass, not a printed value. Where two headings read alike, the source gives them in different places.

Legend:
[1] = RP-UHPLC lipophilicity parameter log k’w; format: physicochemical; settings: for log k’w: RP-UHPLC, acetonitrile/water, log k extrapolated to 0% acetonitrile; for logkw: experimental lipophilicity parameter
From the text: Lipophilicity and water solubility of the drug candidates are important parameters as they are often directly related to their ADME properties in the organism. Lipophilicity is usually expressed as the logarithm of the partition coefficient in n-octanol/water (log P). Due to its laborious determination, especially in the HTS screening, other experimental methods such as RP-HPLC log k’w or purely computational approaches such as Clog P were proposed and have been established as reasonable estimators of true lipophilicity. To investigate the changes in lipophilicity upon introduction of oxazole in the title compounds, we determined the log k’w of all derivatives and compared respective values among the pairs.
The log k of the synthesized compounds was measured using the same instrument (single measurement per concentration), software, and column as was used in the purity evaluation. Working solutions were diluted as described above for purity determination. The log k parameter was calculated after the UHPLC measurements using isocratic mode with mobile phase acetonitrile (B)/water (A) in a set of concentrations of 40, 45, 50% and 20, 30, 40% B for subtype I and subtype II, respectively.

HepG2 cells = test: HepG2 cytotoxicity screening (CellTiter 96); format: cell-based, human; settings: Homo sapiens, HepG2, 24 h, 24 h incubation, CellTiter 96; * above highest tested concentration; ** limited by insolubility in medium
[2] = tested on: Mycobacterium tuberculosis H37Ra ITM-M006710 (ATCC 9431); test: Antimycobacterial MIC, microdilution broth / Alamar Blue (resazurin); format: cell-based; settings: Mycobacterium tuberculosis, 120 h, Middlebrook 7H9, resazurin after 120 h; read-out: Mtb H37Ra MIC
[3] = tested on: M. smegmatis DSM 43465 (ATCC 607); test: Antimycobacterial MIC, microdilution broth / resazurin; format: cell-based; settings: Mycolicibacterium smegmatis; resazurin after 48 h; read-out: MIC M. smegmatis
[4] = tested on: M. aurum DSM 43999 (ATCC 23366); test: as above; format: cell-based; settings: Mycolicibacterium aurum, read-out: MIC M. aurum
[5] = tested on: Staphylococcus aureus subsp. aureus CCM 4223 (ATCC 29213); test: Antibacterial microdilution broth (EUCAST); format: cell-based; settings: Staphylococcus aureus; 24h incubation; read-out: MIC SA
[6] = tested on: Staphylococcus aureus subsp. aureus (MRSA) CCM 4750 (ATCC 43300); test: Antibacterial microdilution broth (EUCAST); format: cell-based; settings: Staphylococcus aureus; 24h incubation; read-out: MIC MRSA
[7] = tested on: Staphylococcus epidermidis CCM 4418 (ATCC 12228); test: Antibacterial microdilution broth (EUCAST); format: cell-based; settings: Staphylococcus epidermidis; 24h incubation; read-out: MIC SE
[8] = tested on: Enterococcus faecalis CCM 4224 (ATCC 29212); test: Antibacterial microdilution broth (EUCAST); format: cell-based; settings: Enterococcus faecalis; 24h incubation; read-out: MIC EF
[9] = tested on: Escherichia coli CCM 3954 (ATCC 25922); test: Antibacterial microdilution broth (EUCAST); format: cell-based; settings: Escherichia coli; 24h incubation; read-out: MIC EC
[10] = tested on: Acinetobacter baumannii DSM 30007 (ATCC 19606); test: Antibacterial microdilution broth (EUCAST); format: cell-based; settings: Acinetobacter baumannii; 24h incubation; read-out: MIC AB
[11] = tested on: Pseudomonas aeruginosa CCM 3955 (ATCC 27853); test: Antibacterial microdilution broth (EUCAST); format: cell-based; settings: Pseudomonas aeruginosa; 72h incubation; read-out: MIC PA
[12] = tested on: Candida albicans CCM 8320 (ATCC 24433); test: Antifungal microdilution broth (EUCAST); settings: Candida albicans, 24 h, read-out: MIC CA
[13] = tested on: Candida krusei CCM 8271 (ATCC 6258); test: Antifungal microdilution broth (EUCAST); settings: Pichia kudriavzevii, 24 h, read-out: MIC CK
[14] = tested on: Candida parapsilosis CCM 8260 (ATCC 22019); test: Antifungal microdilution broth (EUCAST); settings: Lodderomyces parapsilosis, 24 h, read-out: MIC CP
[15] = tested on: Candida tropicalis CCM 8264 (ATCC 750); test: Antifungal microdilution broth (EUCAST); settings: Candida tropicalis, 24 h, read-out: MIC CT
[16] = tested on: Aspergillus fumigatus ATCC 204305; test: Antifungal microdilution broth (EUCAST); settings: Aspergillus fumigatus, ATCC204305, 24 h, read-out: MIC AF
[17] = tested on: Aspergillus flavus CCM 8363; test: Antifungal microdilution broth (EUCAST); settings: Aspergillus flavus, CCM8363, 24 h, read-out: MIC AFla
[18] = tested on: Lichtheimia corymbifera CCM 8077; test: Antifungal microdilution broth (EUCAST); settings: Lichtheimia corymbifera, CCM8077, 24 h, read-out: MIC LC
[19] = tested on: Trichophyton interdigitale CCM 8377 (ATCC 9533); test: Antifungal microdilution broth (EUCAST); settings: Trichophyton interdigitale, 72 h, read-out: MIC TI
[20] = tested on: M. avium DSM 44156 (ATCC 25291); test: Antimycobacterial MIC, microdilution broth / resazurin; format: cell-based, Mycobacterium avium; settings: Mycobacterium avium; resazurin after 96 h; read-out: MIC M. avium
[21] = tested on: M. kansasii DSM 44162 (ATCC 12478); test: as above; format: cell-based; settings: Mycobacterium kansasii; resazurin after 96 h; read-out: MIC M. kansasii

SMILES | log k’w [1] | logkw [1] | MIC [2] [µg/mL] | MIC [3] [µg/mL] | MIC [5] [µM] | MIC [6] [µM] | MIC [7] [µM] | MIC [8] [µM] | MIC [9] [µM] | MIC [10] [µM] | MIC [11] [µM] | melting point [°C] | MIC [12] [µM] | MIC [13] [µM] | MIC [14] [µM] | MIC [15] [µM] | MIC [16] [µM] | MIC [17] [µM] | MIC [18] [µM] | MIC [19] [µM] | other results
O=C(Nc1ncco1)c1ccccn1 [Compound 1b] | 0.854 | 0.8542 | 62.5 (≈ 330 µM) | 125 (≈ 661 µM) | 125 (≈ 23.6 µg/mL) | 250 (≈ 47.3 µg/mL) | 125 (≈ 23.6 µg/mL) | > 500 | > 500 | > 500 | > 500 | 129 to 131 | > 500 | > 500 | > 500 | > 500 | > 500 | > 500 | > 500 | > 500 | pIC50 (HepG2 cells): < 3.00; MIC ([4]; resazurin after 72 h): 31.2 µg/mL (≈ 165 µM)
O=C(Nc1ncco1)c1ccncc1 [Compound 3b] | 0.396 | 0.3955 | 15.6 (≈ 82.6 µM) | 62.5 (≈ 330 µM) | 250 (≈ 47.3 µg/mL) | 500 (≈ 94.6 µg/mL) | 500 (≈ 94.6 µg/mL) | > 500 | > 500 | > 500 | > 500 | 175 to 177 | 500 (≈ 94.6 µg/mL) | 500 (≈ 94.6 µg/mL) | > 500 | > 500 | > 500 | > 500 | 500 (≈ 94.6 µg/mL) | 500 (≈ 94.6 µg/mL) | pIC50 (HepG2 cells): < 3.00; MIC ([4]; 72 h): 15.6 µg/mL (≈ 82.6 µM)
O=C(Nc1nccs1)c1cnccn1 [Compound 8a] | 1.222 | 1.222 | 62.5 (≈ 303 µM) | ≥ 500 | > 500 | > 500 | 500 (≈ 103 µg/mL) | > 500 | > 500 | > 500 | > 500 | – | > 500 | > 500 | > 500 | > 500 | > 500 | > 500 | > 500 | > 500 | MIC ([4]; resazurin after 72 h): 125 µg/mL (≈ 606 µM); MIC [20]: 250 µg/mL (≈ 1210 µM); MIC [21]: 31.2 µg/mL (≈ 152 µM)
O=C(Nc1ncco1)c1cnccn1 [Compound 8b] | 0.154 | 0.154 | 31.2 (≈ 164 µM) | ≥ 500 | > 500 | > 500 | > 500 | > 500 | > 500 | > 500 | > 500 | 160 to 164 | > 500 | > 500 | > 500 | > 500 | > 500 | > 500 | 500 (≈ 95.1 µg/mL) | 500 (≈ 95.1 µg/mL) | MIC ([4]; 72 h): 31.2 µg/mL (≈ 164 µM); MIC [20]: 62.5 µg/mL (≈ 329 µM); MIC [21]: 15.6 µg/mL (≈ 82.2 µM)
